Test results: PMC7799360, “Reprogramming immunosuppressive myeloid cells facilitates immunotherapy for colorectal cancer” (EMBO Molecular Medicine, 2020)
Counter-ions that a name gives are not always drawn. Where no end group is shown, it is not given here.

Legend:
OPRD1 = target: T1, OPRD1 (Homo sapiens, UniProt P41143); assay: GPCR calcium flux assay; type: cell-based; conditions: read-out: Known agonists EC50
T1 construct: Pharmaron (Beijing, China), contract laboratory

CB2 = CB2 (Homo sapiens, UniProt P34972); assay: LANCE Ultra cAMP assay; conditions: read-out: IC50 (known antagonists, TP-16); CB2
Chain of CB2 (P34972 whole entry, species assumed): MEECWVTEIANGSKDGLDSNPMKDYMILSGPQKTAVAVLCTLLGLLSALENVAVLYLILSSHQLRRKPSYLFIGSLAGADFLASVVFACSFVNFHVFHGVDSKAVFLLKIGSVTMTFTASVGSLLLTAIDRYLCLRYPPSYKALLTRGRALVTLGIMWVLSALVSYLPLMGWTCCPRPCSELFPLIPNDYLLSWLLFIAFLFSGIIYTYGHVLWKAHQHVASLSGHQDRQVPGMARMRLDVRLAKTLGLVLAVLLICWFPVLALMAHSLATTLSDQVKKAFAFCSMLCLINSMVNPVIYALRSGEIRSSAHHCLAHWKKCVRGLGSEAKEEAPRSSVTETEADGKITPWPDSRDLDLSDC

HTR1B = HTR1B (Homo sapiens, UniProt P28222); assay: LANCE Ultra cAMP assay
Chain of HTR1B (P28222 whole entry): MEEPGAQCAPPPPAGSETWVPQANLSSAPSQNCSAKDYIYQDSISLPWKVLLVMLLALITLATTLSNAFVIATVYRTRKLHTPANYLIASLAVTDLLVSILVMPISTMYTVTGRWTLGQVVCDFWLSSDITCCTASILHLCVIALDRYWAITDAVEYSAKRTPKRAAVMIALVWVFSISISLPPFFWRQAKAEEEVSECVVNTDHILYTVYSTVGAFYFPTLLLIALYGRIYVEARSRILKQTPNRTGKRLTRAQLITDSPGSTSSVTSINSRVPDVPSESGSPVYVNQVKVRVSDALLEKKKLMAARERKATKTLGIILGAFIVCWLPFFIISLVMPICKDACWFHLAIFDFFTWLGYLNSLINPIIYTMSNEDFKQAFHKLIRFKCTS

BB1 = target: T2, BB1 (Homo sapiens, UniProt P28336); assay: GPCR calcium flux assay; type: cell-based; conditions: read-out: Known agonists EC50
T2 construct: Pharmaron (Beijing, China), contract laboratory
T2 sequence (P28336 whole entry): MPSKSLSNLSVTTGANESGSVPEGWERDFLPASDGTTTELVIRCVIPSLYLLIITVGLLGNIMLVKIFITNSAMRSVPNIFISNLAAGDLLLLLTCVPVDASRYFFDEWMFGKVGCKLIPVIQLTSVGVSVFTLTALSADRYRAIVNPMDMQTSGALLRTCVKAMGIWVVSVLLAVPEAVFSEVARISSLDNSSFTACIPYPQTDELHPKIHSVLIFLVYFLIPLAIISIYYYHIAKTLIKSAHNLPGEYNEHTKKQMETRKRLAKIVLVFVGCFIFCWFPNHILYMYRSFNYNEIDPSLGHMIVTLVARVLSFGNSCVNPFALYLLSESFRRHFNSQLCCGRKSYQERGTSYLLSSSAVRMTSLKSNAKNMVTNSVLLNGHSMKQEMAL

HTR2B = target: T3, HTR2B (Homo sapiens, UniProt P41595); assay: GPCR calcium flux assay; type: cell-based
T3 construct: Pharmaron (Beijing, China), contract laboratory
T3 sequence (P41595 whole entry, species assumed): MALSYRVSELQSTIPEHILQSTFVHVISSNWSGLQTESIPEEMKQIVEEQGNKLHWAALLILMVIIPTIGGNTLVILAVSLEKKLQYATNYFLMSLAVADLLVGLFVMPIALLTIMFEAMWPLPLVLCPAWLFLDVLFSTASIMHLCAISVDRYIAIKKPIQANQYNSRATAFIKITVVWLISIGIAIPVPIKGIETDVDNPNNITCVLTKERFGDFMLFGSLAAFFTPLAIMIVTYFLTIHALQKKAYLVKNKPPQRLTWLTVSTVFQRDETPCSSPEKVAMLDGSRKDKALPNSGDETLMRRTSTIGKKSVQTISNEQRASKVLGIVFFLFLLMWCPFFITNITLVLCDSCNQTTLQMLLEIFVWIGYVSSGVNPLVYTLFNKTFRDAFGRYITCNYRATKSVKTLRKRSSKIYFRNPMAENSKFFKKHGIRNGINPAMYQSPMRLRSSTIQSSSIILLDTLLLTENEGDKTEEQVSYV

AT1 = target: T4, AT1 (Homo sapiens, UniProt P30556); assay: GPCR calcium flux assay; type: cell-based; conditions: read-out: Known agonists EC50
T4 construct: Pharmaron (Beijing, China), contract laboratory
T4 sequence (P30556 whole entry): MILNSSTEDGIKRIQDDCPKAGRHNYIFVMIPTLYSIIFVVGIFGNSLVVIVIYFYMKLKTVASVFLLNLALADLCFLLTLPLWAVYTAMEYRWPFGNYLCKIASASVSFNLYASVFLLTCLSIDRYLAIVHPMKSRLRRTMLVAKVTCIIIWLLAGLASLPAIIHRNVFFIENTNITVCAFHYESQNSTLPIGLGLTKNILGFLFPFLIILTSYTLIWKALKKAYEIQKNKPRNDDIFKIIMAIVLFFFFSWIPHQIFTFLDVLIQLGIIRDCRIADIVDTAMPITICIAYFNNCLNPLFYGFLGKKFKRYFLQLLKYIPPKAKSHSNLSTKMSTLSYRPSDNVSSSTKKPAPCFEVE

T1 sequence (P41143 whole entry, species assumed): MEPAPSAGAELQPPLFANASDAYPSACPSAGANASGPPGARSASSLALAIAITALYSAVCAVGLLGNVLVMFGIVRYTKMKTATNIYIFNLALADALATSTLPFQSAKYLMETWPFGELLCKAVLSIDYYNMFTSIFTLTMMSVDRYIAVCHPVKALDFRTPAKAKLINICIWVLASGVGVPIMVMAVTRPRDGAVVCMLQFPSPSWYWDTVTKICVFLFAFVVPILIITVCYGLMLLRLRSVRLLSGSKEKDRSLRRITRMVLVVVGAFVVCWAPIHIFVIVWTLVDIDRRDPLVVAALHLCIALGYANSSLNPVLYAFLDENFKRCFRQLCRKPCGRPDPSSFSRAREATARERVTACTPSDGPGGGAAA

CCN(CC)C(=O)c1ccc(C2=CC3(CCNCC3)Oc3cccc(O)c32)cc1 [ADL-5859, reference compound]
EC50 (OPRD1): 266 nM

COc1ccc(C(=O)c2c(C)n(CCN3CCOCC3)c3cc(I)ccc23)cc1 [AM630, reference compound]
IC50 (CB2): 260 nM

CN(C)CCCc1cc(C(=O)Nc2ccc(-c3ccncc3)cc2)ccc1O [GR 55562 dihydrochloride]
IC50 (HTR1B; read-out: IC50 (known antagonists, TP-16), HTR1B): 35 nM

CSCC[C@H](NC(=O)[C@H](Cc1ccccc1)NC(=O)[C@H](Cc1c[nH]cn1)NC(=O)CNC(=O)[C@@H](NC(=O)[C@H](C)NC(=O)[C@H](Cc1c[nH]c2ccccc12)NC(=O)[C@H](CC(C)C)NC(=O)[C@H](CC(N)=O)NC(=O)CN)[C@@H](C)O)C(N)=O [Neuromedin B, reference compound]
EC50 (BB1): 0.2 nM

COc1ccc2[nH]cc(C3=CCNCC3)c2c1 [RU24969]
EC50 (HTR1B): 18 nM

Cc1nc2sccn2c(=O)c1CCN1CCC(=C(c2ccc(F)cc2)c2ccc(F)cc2)CC1 [Ritanserin, reference compound]
IC50 (HTR2B): 30.8 nM

DRVYVHPF [Angiotensin II 5-valine]
EC50 (AT1): 0.2 nM
